Reference: patent publication US20130209441A1, “PROCESS FOR INHIBITION OF CEREBRAL DAMAGE ASSOCIATED WITH ISCHEMIA BY ANTHOCYANINS AND ANTHOCYANIDINS” (priority 2012, published 2013)

Legend:
[1] = tested on: superoxide; experiment: In situ detection of brain superoxide by dihydroethidium (DHE) fluorescence in pMCAO mice; type: in vivo, mouse; conditions: pretreatment 2 mg/kg orally; 24 h after pMCAO; vs vehicle, p<0.05
Protocol: Measurement of superoxide is performed in situ by superoxide-selective oxidative fluorescent dye dihydroethidium cell membranes (DHE) as previously described in [3]. DHE is freely permeable across cell membranes and fluoresces red when oxidized to ethidium bromide by superoxide. Unfixed frozen brain sections (30 um) are placed on glass slides and submerged in 10^−6 mol/L DHE (Sigma) in phosphate buffered saline (PBS) buffer, pH 7.4 and incubated at 37° C. for 30 min in a dark humidified container. Fluorescence in ischemic regions of brain sections is then detected by a Zeiss 210 confocal microscope with a 590-nn long-pass filter. The intensity of the fluorescence is analyzed and quantified by densitometry (NIH Image software, version 1.37). The study included three groups (sham-operated, pMCAO with vehicle-treated, and pMCAO with 2 mg/kg of CG-treated mice; (n=4). Four brain sections of each mouse and five fields in each section are measured to calculate mean levels of the brain superoxide. Mitochondria are prepared from adult mouse brains (6-8 weeks old) by using the Percoll gradient method, as previously described. After decapitation, the brain is quickly removed and washed in the isolation buffer (300 mM sucrose, 0.1 mM EGTA, 10 mM HEPES, pH 7.4). The brain is homogenized in 15 ml of buffer by using hand-held glass Potter-Elvehjem homogenizer with PTFE pestle. […]

[2] = tested on: cyt c release from isolated mitochondria; experiment: Cyt c release from isolated mouse brain mitochondria (immunoblot of supernatant); type: biochemical; conditions: for cyt c release in response to Ca2+: Ca2+ 100 μM stimulation
Protocol: Measurement of superoxide is performed in situ by superoxide-selective oxidative fluorescent dye dihydroethidium cell membranes (DHE) as previously described in [3]. DHE is freely permeable across cell membranes and fluoresces red when oxidized to ethidium bromide by superoxide. Unfixed frozen brain sections (30 um) are placed on glass slides and submerged in 10^−6 mol/L DHE (Sigma) in phosphate buffered saline (PBS) buffer, pH 7.4 and incubated at 37° C. for 30 min in a dark humidified container. Fluorescence in ischemic regions of brain sections is then detected by a Zeiss 210 confocal microscope with a 590-nn long-pass filter. The intensity of the fluorescence is analyzed and quantified by densitometry (NIH Image software, version 1.37). The study included three groups (sham-operated, pMCAO with vehicle-treated, and pMCAO with 2 mg/kg of CG-treated mice; (n=4). Four brain sections of each mouse and five fields in each section are measured to calculate mean levels of the brain superoxide. Mitochondria are prepared from adult mouse brains (6-8 weeks old) by using the Percoll gradient method, as previously described. After decapitation, the brain is quickly removed and washed in the isolation buffer (300 mM sucrose, 0.1 mM EGTA, 10 mM HEPES, pH 7.4). The brain is homogenized in 15 ml of buffer by using hand-held glass Potter-Elvehjem homogenizer with PTFE pestle. After 5 strokes, the cell debris and nuclei are centrifuged at 1330×g for 5 min. The supernatant is further centrifuged at 21,200×g for 10 min. Mitochondrial fraction is resuspended in 15% Percoll solution diluted in the isolation buffer and layered on top of a discontinuous Percoll gradient of 25/40%. The density gradient is centrifuged at 30,700×g for 10 min and mitochondria are collected from the interface between 25 and 40% Percoll solution, transferred to a new tube, and washed in 10 mL of isolation buffer by centrifugation at 6700×g for 10 min. The resulting pellet is suspended in the isolation buffer without EGTA and further diluted to 2 mg/mL in assay buffer for the cyt c release assay. 50 μL of mitochondria are then mixed with buffer or reagents in a final reaction volume of […].
The assay buffer contains 125 mM KCI, 2 mM KH2PO4, 4 mM MgCl2 at pH 7.4, and 3 mM ATP, 0.8 mM ADP, 5 mM succinate and 2 μM rotenone for respiration. Mitochondrial suspensions diluted in the assay buffer are exposed to Ca^2+ (100 μM), S-nitrosoglutathione (GS—NO, 50 μM for nitric oxide generation) or H2O2 (50 μM for oxidative stress) in 10 min and centrifuged sat 12,000×g in 5 min. The supernatant is collected and 15 μL of aliquots are run on a SDS-PAGE gel to detect the release of cyt c by the immunoblotting assay. […]

[3] = tested on: AIF release from isolated mitochondria; experiment: AIF release from isolated mouse brain mitochondria; type: biochemical; conditions: compound 100 μM
Protocol: Mitochondria are prepared from mouse brains using flowing differential centrifugation procedures at 4° C. described previously. Homogenation buffer (50 μl) containing the prepared mitochondrial pellet is incubated with 25 μl of C3G at the desired concentration and the buffer added to achieve the final volume of 100 μl. The AIF release is then assessed in the presence of 100 μM of C3G in response to stimulation by GS-NO (50 μM) and H2O2 (50 μM).

[4] = tested on: pMCAO mice; experiment: Mouse model of permanent middle cerebral artery occlusion (pMCAO): infarct volume (TTC staining) and 18-point neurological score at 24 h; type: in vivo; conditions: 24 h after pMCAO, vs vehicle
Protocol: C3G is isolated from Prunus cerasus fruits as previously described is dissolved in 0.9% normal saline (NS) and is administered by oral gavage to mice at 1-h before induction of pMCAO. Mice are randomly distributed into […] and treated with vehicle (n=10), or 1 mg/kg (n=8), 2 mg/kg (n=10), and 5 mg/kg (n=9) of C3G. The doses chosen in the present study are based on previous reports. Animals are euthanized at 24 h following pMCAO and infarct volumes are determined.
To evaluate the effect of a delayed treatment at 3 h following pMCAO, mice are randomly assigned to vehicle (n=11), or 2 mg/kg of C3G administered orally at 3 h after pMCAO supplemented by two additional doses of 2 mg/kg of C3G 3 h apart. […] Animals are euthanized at 24 h following pMCAO and infarct volumes and neurological outcomes are determined.
Neurological assessment of experimental mice is performed according to an 18 point-based scale at 1 h before induction of pMCAO and at 24 h following surgery. Brains are immediately removed following neurological assessment, rinsed in cold saline solution, cut into 1-mm-thick coronal sections, and processed for 2% 2,3,5-triphenylterazolium chloride (TTC) staining as previously described. The infarct volumes from individual sections are then summed to determine the total brain infarct volume and adjusted for edema (corrected infarct volume).
All data are expressed as mean values±S.E.M. The degree of statistical significance between groups is determined on the basis of Student t-test, One-way ANOVA test, followed by post hoc Fisher LSD test, and Kruskal-Wallis rank test. SigmaStat 3.0 software (SYSTAT Software Inc., Point Richmond, Calif.) is used to carry out the analysis. Statistical significance is defined at p<0.05.

OC[C@H]1O[C@@H](Oc2cc3c(O)cc(O)cc3[o+]c2-c2ccc(O)c(O)c2)[C@H](O)[C@@H](O)[C@@H]1O [C3G, cyanidin-3-O-glucoside]
fluorescent density of brain superoxide in situ [1]: significantly suppressed | cyt c release in response to Ca2+ ([2]; compound 1 μM): no effect | cyt c release in response to Ca2+ ([2]; compound 100 μM): did not prevent | cyt c release in response to GS-NO ([2]; GS-NO 50 μM oxidative stress, compound 100 μM): did not prevent | cyt c release in response to H2O2 ([2]; H2O2 50 μM oxidative stress, compound 100 μM): did not prevent | AIF release in response to GS-NO ([3]; GS-NO 50 μM stimulation): partially prevented | AIF release in response to H2O2 ([3]; H2O2 50 μM stimulation): partially prevented | reduction of infarct volume ([4]; 2 mg/kg oral gavage 1 h before pMCAO): 27% | reduction of infarct volume ([4]; 5 mg/kg oral gavage 1 h before pMCAO): 30% | reduction in infarct size ([4]; delayed treatment: 2 mg/kg orally at 3 h after pMCAO plus two additional 2 mg/kg doses 3 h apart): 25% | neurological performance (18-point score) ([4]; pretreatment 2 mg/kg orally): statistically significant better neurological performance | neurological performance (18-point score) ([4]; pretreatment 5 mg/kg orally): statistically significant better neurological performance | neurological functional performance (18-point score) ([4]; treatment 2 mg/kg orally at 3 h after onset of ischemia plus two additional doses): significantly better
